Assay results: patent US10208010B2, “Crystal of a heterocyclidene acetamide derivative” (MOCHIDA PHARMACEUTICAL CO., LTD., priority 2017, dated 2019)

Key:
human TRPV1 = target: T1, human TRPV1 (Homo sapiens, UniProt Q8NER1); assay: Measurement of capsaicin-induced Ca influx in human TRPV1-transformed CHO cell line; type: cell-based; conditions: concentration shifting the capsaicin concentration reaction curve to the right by two times; hTRPV1-CHO cells, FDSS-6000
T1 construct: expressed in transfected cells
T1 sequence (Q8NER1 whole entry): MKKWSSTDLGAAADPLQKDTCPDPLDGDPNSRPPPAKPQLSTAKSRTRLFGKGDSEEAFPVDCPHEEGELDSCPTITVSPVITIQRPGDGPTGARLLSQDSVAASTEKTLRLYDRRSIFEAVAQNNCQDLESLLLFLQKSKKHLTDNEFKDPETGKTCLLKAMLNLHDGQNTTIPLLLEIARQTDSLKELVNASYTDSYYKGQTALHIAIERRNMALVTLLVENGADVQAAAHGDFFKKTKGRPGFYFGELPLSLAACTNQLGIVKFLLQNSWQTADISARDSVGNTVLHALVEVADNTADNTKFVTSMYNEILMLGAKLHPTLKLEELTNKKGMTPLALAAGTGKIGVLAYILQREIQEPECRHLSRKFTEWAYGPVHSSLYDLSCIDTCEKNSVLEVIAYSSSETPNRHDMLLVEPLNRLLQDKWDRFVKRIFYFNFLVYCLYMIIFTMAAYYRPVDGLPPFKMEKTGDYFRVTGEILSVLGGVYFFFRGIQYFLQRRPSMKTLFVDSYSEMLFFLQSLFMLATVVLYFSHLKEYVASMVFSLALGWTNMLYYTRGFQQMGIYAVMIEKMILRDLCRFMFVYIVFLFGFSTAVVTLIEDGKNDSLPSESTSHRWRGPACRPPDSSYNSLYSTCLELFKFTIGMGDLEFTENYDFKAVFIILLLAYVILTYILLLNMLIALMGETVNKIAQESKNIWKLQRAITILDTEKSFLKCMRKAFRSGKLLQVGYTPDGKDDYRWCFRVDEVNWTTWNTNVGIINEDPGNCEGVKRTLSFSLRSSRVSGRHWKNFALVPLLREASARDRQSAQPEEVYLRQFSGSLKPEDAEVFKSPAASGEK
Text: (1) Establishment of Human TRPV1-Transformed CHO Cell Line
Human vanilloid receptor 1 (hTRPV1) cDNA was cloned from a human brain. The cloned hTRPV1 cDNA was inserted into a pCAGGS vector, which was then genetically introduced into a CHO-K1 cell line to transform the cells. Clones obtained by limiting dilution were stimulated with capsaicin, and clones with a high responsiveness were selected based on increased Ca concentration. The selected clones were then used for the following experiment.
(2) Measurement of Ca Influx Using FDSS-6000
Human TRPV1-transformed CHO cells were seeded at a density of 40,000 cells per well on a 96-well plate (black walls, transparent bottom/manufactured by Greiner Bio-One International GmbH). […] Changes in intracellular Ca concentration were measured for 3 minutes after capsaicin stimulus (1 nmol/L to 1 μmol/L) with an FDSS-6000 (λex: 480 nm, λem: 540 nm, Hamamatsu Photonics K.K.). The integral values of the respective intracellular Ca concentration increase rates in the medium group and the group treated with the crystal of the invention were calculated, and capsaicin concentration reaction curves were prepared.

[1] = Storage stability test (powder stability); type: physicochemical
Procedure: (Experimental Example 2) Storage Stability Test
(§1) After the end of the storage period, the samples were removed, their chemical purities were measured by high performance liquid chromatography, and the crystal forms were confirmed by x-ray powder analysis.

[2] = Long-term storage stability test (powder stability); type: physicochemical
Procedure: (Experimental Example 3) Long-Term Storage Stability Test
as §1

[3] = Photostability test in accordance with ICH Q1B; type: physicochemical; conditions: for Stability with respect to light: summary in words of Table 10
Procedure: (Experimental Example 4) Photostability Test
After completion of the test, each sample was removed, its chemical purity was measured by high performance liquid chromatography, and the crystal form was confirmed by x-ray powder analysis.

[4] = Solvent suspension test of crystal form mixture; type: physicochemical; conditions: 25° C.
Text: (Experimental Example 1) Solvent Suspension Test of Crystal Form Mixture

[5] = 25° C./60% RH, 6 months, sealed
[6] = 25° C./60% RH, 13 months, sealed
[7] = 25° C./60% RH, 24 months, sealed
[8] = 25° C./60% RH, 36 months, sealed
[9] = 25° C./60% RH, 48 months, sealed
[10] = 1ICH (10-day test; 1.2 million lux hours and 200 watt hours/m^2 or more at 25° C.)

SMILES	Chemical purity (%) ([1]; 25° C./60% RH, 1 month, sealed)	Crystal form ([1]; 25° C./60% RH, 1 month, sealed)	Chemical purity (%) ([1]; 40° C./75% RH, 1 month, sealed)	Crystal form ([1]; 40° C./75% RH, 1 month, sealed)	Chemical purity (%) ([1]; 60° C., 1 month, sealed)	Crystal form ([1]; 60° C., 1 month, sealed)	Chemical purity (%) ([1]; Before test)	Crystal form ([1]; Before test)	Chemical purity (%) [3, 10] [%]	Crystal form [3, 10]	Chemical purity (%) ([3]; Before test)	Crystal form ([3]; Before test)	Stability with respect to light [3]	also measured
O=C(/C=C1\CCOc2cc(C(F)(F)F)ccc21)Nc1cccc2c1C[C@H](O)CC2 [Compound (1), (E)-2-(7-trifluoromethyl-chroman-4-ylidene)-N-((7R)-7-hydroxy-5,6,7,8-tetrahydronaphthalen-1-yl)acetamide]														A2 value (human TRPV1): A (A less than 100 nmol/L)
O=C(/C=C1\CCOc2cc(C(F)(F)F)ccc21)Nc1cccc2c1C[C@H](O)CC2 [Type I crystal, (E)-2-(7-trifluoromethyl-chroman-4-ylidene)-N-((7R)-7-hydroxy-5,6,7,8-tetrahydronaphthalen-1-yl)acetamide]	>99.9	Type I	>99.9	Type I	>99.9	Type I	>99.9	Type I	>99.9	Type I crystal	>99.9	Type I crystal	extremely high chemical and physical stability	Chemical purity (%) ([2]; 25° C./60% RH, 3 months, sealed): >99.9%; Chemical purity (%) [2, 5]: >99.9%; Crystal form [2, 5]: Type I; Chemical purity (%) [2, 6]: >99.9%; Crystal form [2, 6]: Type I; Chemical purity (%) [2, 7]: >99.9%; Crystal form [2, 7]: Type I; Chemical purity (%) [2, 8]: >99.9%; Crystal form [2, 8]: Type I; Chemical purity (%) [2, 9]: >99.9%; Crystal form [2, 9]: Type I; Chemical purity (%) ([2]; Before test): >99.9%; Crystal form ([2]; Before test): Type I; Moisture absorption ([2]; during the test periods of Experimental Examples 2 and 3): no moisture absorption; Chemical and physical stability ([2]; test periods of Experimental Examples 2 and 3): chemically and physically stable throughout the test period; Thermodynamic stability in suspension [4]: thermodynamically stable in suspension
O=C(/C=C1\CCOc2cc(C(F)(F)F)ccc21)Nc1cccc2c1C[C@H](O)CC2 [Type II crystal, (E)-2-(7-trifluoromethyl-chroman-4-ylidene)-N-((7R)-7-hydroxy-5,6,7,8-tetrahydronaphthalen-1-yl)acetamide]	>99.9	Type II	>99.9	Type II	>99.9	Type II	>99.9	Type II	98.2	Type II crystal	>99.9	Type II crystal	unstable with respect to light	
